Data: patent US9770451B2, “Composition including ATM inhibitor for reducing cellular senescence and use of the composition” (Samsung Electronics Co., Ltd., priority 2014, dated 2017)

How the values were obtained:
[1] = system: senescent fibroblasts (passage 37); test: Cell proliferation and formation of cell colonies (crystal violet staining); format: cell-based, human; details: among 0.1, 0.5 and 2 μM
Method: A human fibroblast cell line was inoculated into a Dulbecco's Modified Eagle's medium (DMEM) containing 10% fetal bovine serum (FBS), 100 units/ml of penicillin, and 100 μg/ml of streptomycin (wherein these two antibiotics were purchased from Gibro-BRL, Grand Island, N.Y.), and then, cultured in a 5% CO2 incubator at a temperature of 37° C. The fibroblast cell line (i.e., M11 strain) was a cell line derived from the foreskin of a child. When the cells were grown to about 85% confluency in a plate, the cells were subjected to subculture. The early subculture was carried out at a split ratio of 1:4, and the late subculture was carried out at a split ratio of 1:2. When the cell doubling time was 14 days, the cells were considered to be senescent fibroblasts (passages 35 to 37).
To determine the optimal concentration upon the treatment with an ATM-kinase inhibitor KU-60019 (SELLECKCHEM, S1570, salt), the senescent fibroblasts (passage 37) were inoculated into each well of a 6-well plate at a concentration of 2,000 cells/well, and then, KU-60019 was added to each well of the 6-well plate ([…]). In addition, as a negative control group, the cells were cultured under the same conditions as described above, except that a medium used herein contained a dimethyl sulfoxide (DMSO) (0.05 (v/v) %) medium. […]

[2] = system: senescent fibroblasts (passage 37); test: Soft agar assay for abnormal (cancer-like) proliferation; format: cell-based, human; details: 0.5 μM, 4 weeks; 293T cells formed colonies
Method: In addition, to confirm whether the cells proliferated by the culture proliferate abnormally, for example, proliferate like cancer cells, a soft agar assay was carried out. First, the DMEM medium containing 10% FBS was mixed with a 1.6% agar medium at a ratio of 1:1, so as to prepare a medium containing 0.8% agar formulation to coat the bottom of each well of a 6-well plate. […] As a control group, a 293T cell line (ATCC® CRL-11268™) from human embryonic kidney was used. […] The same procedure applies similarly to the remaining images b, c, and d. In FIG. 3, HDF M11 p37 refers to a human dermal fibroblast M11 strain, which is a sub-cultured fibroblast (passage 37). In FIG. 3, KU-60019-KU-60019 refers to a process of continuously adding KU-60019 to a medium and culturing for 28 days; KU-60019-DMSO refers to a process of adding KU-60019 to a medium and culturing for 14 days, removing KU-60019, and then, culturing the cells in the absence of KU-60019 for another 14 days; DMSO-DMSO refers to a condition where KU-60019 is not added at all and the cells cultured for 28 days. The 293T cells were cultured under the same condition as DMSO-DMSO, and then, applied to the soft agar assay.

C57BL/6J mice = test: Wound healing assay (full-thickness punch-biopsy wounds); format: in vivo, mouse; details: for closure difference between KU-60019-treated and DMSO-treated wounds: day 7; for mean wound closure: day 7, topical 5 μM in 30% Pluronic gel daily
Method: To further test whether ATMi can promote cutaneous wounding healing in young (3 months old) and old (19 months old) male mice (C57BL/6J mice), four full-thickness punch-biopsy wounds (8 mm in diameter) were created on the dorsal skin of mouse (5 mice/experimental group), drug at a concentration of 5 μM KU-60019 in 30% Pluronic gel (Pluronic F-127 Sigma, P2443-1 KG) 0.5 mL was applied to wounds every day, and then covered the wounds with Telfa sponges (Kendall Health Care, Mansfield, Mass., USA). All animal studies were reviewed and approved by the […] Animal Care and Use Committee of SKKU School of Medicine (SUSM). SUSM is an Association for Assessment and Accreditation of Laboratory Animal Care international accredited facility and abides by the Institute for Laboratory Animal Research guide. Wounds were photographed for 10 days. Immunohistochemistry analyses were performed on 5 μm paraffin embedded sections as described previously (Lin et. al., 2004. Developmental Biology 270, 474-486). Primary antibodies used for immunohistochemistry were mouse anti-α-smooth muscle actin (Sigma, F3777-2ML, 1:500), and mouse anti-PCNA (Santa Cruz Biotechnology, SC-56, 1:500). Secondary antibodies used for immunohistochemistry were EnVision™ Detection System (DAKO, K5007). Masson-Trichrome staining was performed according to the manufacturer's instructions (Polysciences Inc., Warrington Pa., USA).
To further test whether KU-60019 can promote cutaneous wounding healing in young (3 months old) and old (19 months old) mice, we created full-thickness punch-biopsy wounds 8 mm in diameter on the dorsal skin of 10 mice (5 mice/each group), applied to the wounds at a concentration of 5 μM KU-60019 in 30% Pluronic gel (Pluronic F-127 Sigma, P2443-1 KG), and then covered the wounds with Telfa sponges (Kendall Health Care, Mansfield, Mass., USA). Pluronic F-127 is a hydrogel widely used in pharmaceuticals as a drug delivery vehicle for a variety of soluble mediators, including antibodies, cytokines, and growth factors. […] Only 13.5% closure difference was shown between KU-60019-treated and DMSO-treated wounds. […] 20% closure difference was shown between KU-60019-treated and DMSO-treated wounds. […] KU-60019-treated wounds are capable of complete and efficient closure.

Compound: C[C@@H]1CN(CC(=O)Nc2ccc3c(c2)Cc2cccc(-c4cc(=O)cc(N5CCOCC5)o4)c2S3)C[C@H](C)O1 [KU-60019, 2-((2S,6R)-2,6-dimethylmorpholino)-N-(5-(6-morpholino-4-oxo-4H-pyran-2-yl)-9H-thioxanthen-2-yl)acetamide]
- most effective concentration selected [1]: 0.5 µM
- colony formation in soft agar [2]: colonies were not formed
- closure difference between KU-60019-treated and DMSO-treated wounds (C57BL/6J mice; old mouse (19 months old)): 20%
- mean wound closure (C57BL/6J mice; old mouse (19 months old), control 49.4%): 69.4%
- closure difference between KU-60019-treated and DMSO-treated wounds (C57BL/6J mice; young mouse (3 months old)): 13.5%
- mean wound closure (C57BL/6J mice; young mouse (3 months old), control 74.1%): 87.6%
